Structures can show the parent of a compound that is named as a salt.
Experiments:
[1] = biological target: T1, Rat Plasma VAP-1 (Rattus norvegicus, UniProt O08590); test: (Ex vivo) rat plasma VAP-1 inhibition test after oral administration of the compound; type: in vivo; conditions: 3 hours after oral administration, SD male rats, read-out: inhibition ratio (plasma VAP-1, ex vivo)
T1 construct: from tissue; host or cells: plasma of SD male rats (7-12 weeks old) after oral dosing
T1 sequence (O08590 28-763 limits assumed): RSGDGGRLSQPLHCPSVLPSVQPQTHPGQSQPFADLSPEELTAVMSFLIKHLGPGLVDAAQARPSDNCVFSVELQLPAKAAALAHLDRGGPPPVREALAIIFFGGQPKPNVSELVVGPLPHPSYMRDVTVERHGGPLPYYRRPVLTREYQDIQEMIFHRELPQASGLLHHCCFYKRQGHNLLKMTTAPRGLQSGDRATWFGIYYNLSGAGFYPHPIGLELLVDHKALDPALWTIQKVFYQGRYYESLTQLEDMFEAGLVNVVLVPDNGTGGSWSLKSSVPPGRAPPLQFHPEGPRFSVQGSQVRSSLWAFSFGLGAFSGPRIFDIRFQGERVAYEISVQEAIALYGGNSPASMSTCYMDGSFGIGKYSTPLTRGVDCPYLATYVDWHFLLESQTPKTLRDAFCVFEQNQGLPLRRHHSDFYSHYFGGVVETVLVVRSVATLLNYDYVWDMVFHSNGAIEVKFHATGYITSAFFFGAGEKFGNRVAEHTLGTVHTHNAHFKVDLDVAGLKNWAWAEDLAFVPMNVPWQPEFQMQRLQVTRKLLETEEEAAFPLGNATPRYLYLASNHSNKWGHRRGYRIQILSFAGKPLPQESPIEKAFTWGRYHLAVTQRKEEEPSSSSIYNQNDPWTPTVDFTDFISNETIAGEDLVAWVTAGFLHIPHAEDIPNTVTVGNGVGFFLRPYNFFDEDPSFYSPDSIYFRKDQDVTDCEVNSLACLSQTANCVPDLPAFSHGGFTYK
Method: (Ex Vivo) Rat Plasma VAP-1 Inhibition Test after Oral Administration of the Compound
The compound was orally administered (0.3-10 mg/kg) to 7-12 week old SD male rats in the non-fasting state. Under anesthesia, the blood was collected in heparin tubes from the jugular vein before the administration and 3, 8 and 24 hours after the administration. The blood was centrifuged at 14000 rpm for 10 minutes to get plasma. The VAP-1 enzyme activity in the plasma was measured by radiochemical enzyme assay.
The radiochemical enzyme assay was conducted by modifying the method of P. H. Yu et al. (Diabetologia 40 1243 (1997)). ^14C-benzylamine (2.5 μM) was added to the obtained plasma, and was incubated at 37° C. for 3 hours. The reaction was terminated by the addition of 100 μL of 2 M citric acid solution to the reaction solution. The oxidative product was extracted using a toluene/ethyl acetate mixture and the radioactivity was measured with a liquid scintillation counter. The inhibition ratio of the compound was calculated using the following equation. Inhibition ratio={1−[Plasma VAP-1 activity after administration of the compound]/[Plasma VAP-1 activity before administration]}×100

[2] = biological target: T2, Human VAP-1 enzyme (Homo sapiens, UniProt Q16853); test: Human VAP-1 enzyme inhibition test; type: biochemical; conditions: 1 h; compound 30 nM; 14C-benzylamine 100 μM; read-out: inhibition ratio (human VAP-1 enzyme)
T2 construct: purchased R&D Systems, Inc
T2 sequence (Q16853 1-763): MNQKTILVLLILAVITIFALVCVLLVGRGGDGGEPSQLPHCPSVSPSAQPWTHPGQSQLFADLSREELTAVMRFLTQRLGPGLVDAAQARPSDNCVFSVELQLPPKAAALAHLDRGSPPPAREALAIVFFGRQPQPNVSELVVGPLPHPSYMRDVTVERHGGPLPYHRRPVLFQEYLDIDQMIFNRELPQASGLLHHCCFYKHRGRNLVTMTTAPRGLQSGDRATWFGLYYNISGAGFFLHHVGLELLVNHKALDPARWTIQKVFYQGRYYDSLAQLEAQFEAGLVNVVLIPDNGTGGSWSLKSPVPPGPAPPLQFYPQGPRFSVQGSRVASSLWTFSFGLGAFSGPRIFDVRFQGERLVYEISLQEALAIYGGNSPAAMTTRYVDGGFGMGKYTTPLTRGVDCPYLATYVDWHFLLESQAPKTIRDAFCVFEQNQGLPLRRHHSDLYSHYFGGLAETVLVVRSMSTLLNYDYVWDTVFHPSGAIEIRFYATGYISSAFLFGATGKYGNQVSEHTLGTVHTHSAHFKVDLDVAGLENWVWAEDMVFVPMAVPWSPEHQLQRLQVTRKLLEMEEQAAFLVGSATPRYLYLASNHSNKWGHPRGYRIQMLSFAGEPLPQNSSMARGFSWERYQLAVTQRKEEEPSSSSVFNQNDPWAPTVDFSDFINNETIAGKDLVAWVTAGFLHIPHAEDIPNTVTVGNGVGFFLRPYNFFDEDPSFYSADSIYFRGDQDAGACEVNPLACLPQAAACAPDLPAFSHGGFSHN
How it was run: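 Activity measured as radioactive oxidation product of 14C-benzylamine (100 μM final), extracted with toluene/ethyl acetate after citric acid stop and scintillation-counted. Enzyme (recombinant human VAP-1) first exposed to compound 20 min at room temperature, reaction then 1 h at 37 °C. Percent inhibition versus DMSO control.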

Row | inhibition in vivo at 0.3 mg/kg [1] | inhibition at 0.03 µM [2] | Compound
1 | ≥ 50% | ≥ 50% | COCCON=C1CN(c2ncc(-c3cccc(COC(=O)NC(=N)N)c3F)cn2)C1 [Example 12, 2-Fluoro-3-(2-{3-[(2-methoxyethoxy)imino]azetidin-1-yl}pyrimidin-5-yl)benzyl carbamimidoylcarbamate]
2 | ≥ 50% | ≥ 50% | COCC(CON=C1CN(c2ncc(-c3cccc(COC(=O)NC(=N)N)c3F)cn2)C1)OC(C)=O (stereo not shown) [Example 20, 1-[({1-[5-(3-{[(Carbamimidoylcarbamoyl)oxy]methyl}-2-fluorophenyl)pyrimidin-2-yl]azetidin-3-ylidene}amino)oxy]-3-methoxypropan-2-yl acetate]
3 | ≥ 50% | ≥ 50% | CON=C1CN(c2ccc(-c3cccc(COC(=O)NC(=N)N)c3F)cn2)C1 [Example 41, 2-Fluoro-3-{6-[3-(methoxyimino)azetidin-1-yl]pyridin-3-yl}benzyl carbamimidoylcarbamate]
4 | ≥ 50% | ≥ 50% | CON=C1CN(c2ncc(-c3cccc(COC(=O)NC(=N)N)c3F)cc2C)C1 [Example 42, 2-Fluoro-3-{6-[3-(methoxyimino)azetidin-1-yl]-5-methylpyridin-3-yl}benzyl carbamimidoylcarbamate]
5 | ≥ 50% | ≥ 50% | N=C(N)NC(=O)OCc1cccc(-c2cnc(N3CCC(=NOCCOC4CCCCO4)CC3)nc2)c1F (stereo not shown) [Example 57, 2-Fluoro-3-{2-[4-({2-[(tetrahydropyran-2-yl)oxy]ethoxy}imino)piperidin-1-yl]pyrimidin-5-yl}benzyl carbamimidoylcarbamate]
6 | ≥ 50% | ≥ 50% | COCCON=C1CCN(c2ncc(-c3cccc(COC(=O)NC(=N)N)c3F)cn2)CC1 [Example 60, 2-Fluoro-3-(2-{4-[(2-methoxyethoxy)imino]piperidin-1-yl}pyrimidin-5-yl)benzyl carbamimidoylcarbamate]
7 | ≥ 50% | ≥ 50% | CC(=O)OCCON=C1CCN(c2ncc(-c3cccc(COC(=O)NC(=N)N)c3F)cn2)CC1 [Example 68, 2-[({1-[5-(3-{[(Carbamimidoylcarbamoyl)oxy]methyl}-2-fluorophenyl)pyrimidin-2-yl]piperidin-4-ylidene}amino)oxy]ethyl acetate]
8 | ≥ 50% | ≥ 50% | CO/N=C1\CCN(c2ncc(-c3cccc(COC(=O)NC(=N)N)c3F)cn2)C1 [Example 69, (E/Z)-2-fluoro-3-{2-[3-(methoxyimino)pyrrolidin-1-yl]pyrimidin-5-yl}benzyl carbamimidoylcarbamate]
9 | ≥ 50% | ≥ 50% | N=C(N)NC(=O)OCc1cccc(-c2cnc(N3CC(=NO)C3)nc2)c1F [Example 70, 2-Fluoro-3-{2-[3-(hydroxyimino)azetidin-1-yl]pyrimidin-5-yl}benzyl carbamimidoylcarbamate]
10 | ≥ 50% | ≥ 50% | N=C(N)NC(=O)OCc1cccc(-c2cnc(N3CC(=NOCCCO)C3)nc2)c1F [Example 72, 2-Fluoro-3-(2-{3-[(3-hydroxypropoxy)imino]azetidin-1-yl}pyrimidin-5-yl)benzyl carbamimidoylcarbamate]
11 | ≥ 50% | ≥ 50% | N=C(N)NC(=O)OCc1cccc(-c2cnc(N3CCC(=NOCCO)CC3)nc2)c1F [Example 85, 2-Fluoro-3-(2-{4-[(2-hydroxyethoxy)imino]piperidin-1-yl}pyrimidin-5-yl)benzyl carbamimidoylcarbamate]
12 | ≥ 50% | ≥ 50% | N=C(N)NC(=O)OCc1cccc(-c2cnc(N3CCC(=NOCCCO)CC3)nc2)c1F [Example 86, 2-Fluoro-3-(2-{4-[(3-hydroxypropoxy)imino]piperidin-1-yl}pyrimidin-5-yl)benzyl carbamimidoylcarbamate hydrochloride]
13 | ≥ 50% | ≥ 50% | CC(O)CON=C1CCN(c2ncc(-c3cccc(COC(=O)NC(=N)N)c3F)cn2)CC1 (stereo not shown) [Example 90, 2-Fluoro-3-(2-{4-[(2-hydroxypropoxy)imino]piperidin-1-yl}pyrimidin-5-yl)benzyl carbamimidoylcarbamate]
14 | ≥ 50% | ≥ 50% | CC(CO)CON=C1CCN(c2ncc(-c3cccc(COC(=O)NC(=N)N)c3F)cn2)CC1 (stereo not shown) [Example 91, 2-Fluoro-3-(2-{4-[(3-hydroxy-2-methylpropoxy)imino]piperidin-1-yl}pyrimidin-5-yl)benzyl carbamimidoylcarbamate]
15 | ≥ 50% | ≥ 50% | N=C(N)NC(=O)OCc1cccc(-c2cnc(N3CCC(=NOCC(CO)CO)CC3)nc2)c1F [Example 97, 2-Fluoro-3-[2-(4-{[3-hydroxy-2-(hydroxymethyl)propoxy]imino}piperidin-1-yl)pyrimidin-5-yl]benzyl carbamimidoylcarbamate]
16 | ≥ 50% | ≥ 50% | CC(CO)(CO)CON=C1CCN(c2ncc(-c3cccc(COC(=O)NC(=N)N)c3F)cn2)CC1 [Example 98, 2-Fluoro-3-[2-(4-{[3-hydroxy-2-(hydroxymethyl)-2-methylpropoxy]imino}piperidin-1-yl)pyrimidin-5-yl]benzyl carbamimidoylcarbamate]
17 | ≥ 50% | ≥ 50% | N=C(N)NC(=O)OCc1cccc(-c2cnc(N3CCC(=NOCC(O)CO)CC3)nc2)c1F (stereo not shown) [Example 99, 3-(2-{4-[(2,3-Dihydroxypropoxy)imino]piperidin-1-yl}pyrimidin-5-yl)-2-fluorobenzyl carbamimidoylcarbamate]
18 | ≥ 50% | ≥ 50% | COC(CO)CON=C1CN(c2ncc(-c3cccc(COC(=O)NC(=N)N)c3F)cn2)C1 (stereo not shown) [Example 101, 2-Fluoro-3-(2-{3-[(3-hydroxy-2-methoxypropoxy)imino]azetidin-1-yl}pyrimidin-5-yl)benzyl carbamimidoylcarbamate]

Row | Compound | inhibition in vivo at 0.3 mg/kg [1] | inhibition at 0.03 µM [2]
19 | N=C(N)NC(=O)OCc1cccc(-c2cnc(N3CCC(=NOCCCCO)CC3)nc2)c1F [Example 87, 2-Fluoro-3-(2-{4-[(4-hydroxybutoxy)imino]piperidin-1-yl}pyrimidin-5-yl)benzyl carbamimidoylcarbamate hydrochloride] | ≥ 50% | ≥ 50%
20 | N=C(N)NC(=O)OCc1cccc(-c2cnc(N3CC(=NOCCC(O)CO)C3)nc2)c1F (stereo not shown) [Example 94, 3-(2-{3-[(3,4-Dihydroxybutoxy)imino]azetidin-1-yl}pyrimidin-5-yl)-2-fluorobenzyl carbamimidoylcarbamate] | ≥ 50% | ≥ 50%

From patent US10759781B2, “Substituted guanidine derivatives” (UBE INDUSTRIES, LTD., priority 2015, dated 2020)
